Measurements reported in US10294202B2, “Pyrrolidinones as herbicides” (FMC Corporation, priority 2013, dated 2019).

Columns and labels:
ducksalad = assay: Test B flooded paddy test; assay type: in vivo, Heteranthera limosa; conditions: Flood, scale of 0 to 100 where 0 is no effect and 100 is complete control
Procedure, shortened: (§1)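 Scoring: visual, compared with untreated controls, 0 = no effect through 100 = complete control, taken 13 to 15 days after treatment in the greenhouse. Compounds had been added to paddy water over soil flooded 3 cm deep at the plants' 2-leaf stage.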

galium = assay: Test A postemergence herbicide test; assay type: in vivo, Galium aparine
Procedure, shortened: (§2)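 Plants at the one- to two-leaf stage, 2–10 cm tall, grown in loam/sand pots, received postemergence sprays of the test chemicals. After about 10 days in the greenhouse, injury was scored visually against untreated controls on a 0–100 scale (0 none, 100 complete control).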

corn = assay: Test A pre-/postemergence herbicide test; assay type: in vivo, Zea mays; conditions: Postemergence
Procedure, shortened: (§3)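 Directed soil spray to seeded pots (preemergence) or spray onto one- to two-leaf seedlings 2–10 cm tall (postemergence); loam/sand substrate throughout. Evaluated visually after about 10 days against untreated plants, 0 = no effect, 100 = complete control.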

pigweed = assay: Test A pre-/postemergence herbicide test; assay type: in vivo, Amaranthus retroflexus
Procedure, shortened: as §3

kochia = assay: Test A pre-/postemergence herbicide test; assay type: in vivo, Kochia scoparia
Procedure, shortened: as §3

blackgrass = assay: Test A postemergence herbicide test; assay type: in vivo, Alopecurus myosuroides
Procedure, shortened: as §2

barnyardgrass [1] = assay: Test B flooded paddy test; assay type: in vivo, Echinochloa crus-galli; conditions: Flood, scale of 0 to 100 where 0 is no effect and 100 is complete control
Procedure, shortened: as §1

rice = assay: Test B flooded paddy test; assay type: in vivo, Oryza sativa; conditions: Flood, scale of 0 to 100 where 0 is no effect and 100 is complete control
Procedure, shortened: as §1

wheat = assay: Test A pre-/postemergence herbicide test; assay type: in vivo, Triticum aestivum; conditions: Postemergence
Procedure, shortened: as §3

ryegrass, Italian = assay: Test A pre-/postemergence herbicide test; assay type: in vivo, Lolium multiflorum
Procedure, shortened: as §3

giant foxtail = assay: Test A pre-/postemergence herbicide test; assay type: in vivo, Setaria faberii
Procedure, shortened: as §3

ragweed = assay: Test A pre-/postemergence herbicide test; assay type: in vivo, Ambrosia elatior
Procedure, shortened: as §3

sedge, umbrella = assay: Test B flooded paddy test; assay type: in vivo, Cyperus difformis; conditions: Flood, scale of 0 to 100 where 0 is no effect and 100 is complete control
Procedure, shortened: as §1

barnyardgrass [2] = assay: Test A pre-/postemergence herbicide test; assay type: in vivo, Echinochloa crus-galli
Procedure, shortened: as §3

[3] = 125 g ai/ha, 0 to 100 scale, 0 no effect, 100 complete control
[4] = 500 g ai/ha, 0 to 100 scale (0 no effect, 100 complete control)
[5] = 125 g ai/ha, visual rating, 0 to 100 scale, 0 no effect, 100 complete control, approximately 10 days, preemergence
[6] = Postemergence, 125 g ai/ha, 0 to 100 scale, 0 no effect, 100 complete control
[7] = preemergence, 500 g ai/ha, 0 to 100 scale
[8] = Postemergence, 500 g ai/ha, 0 to 100 scale (0 no effect, 100 complete control)
[9] = 125 g ai/ha, 0 to 100 scale, 0 is no effect, 100 is complete control
[10] = Postemergence, 125 g ai/ha, 0 to 100 scale, 0 is no effect, 100 is complete control
[11] = preemergence, 500 g ai/ha, 0 to 100 scale, 0 is no effect and 100 is complete control
[12] = 125 g ai/ha, visual rating on 0 to 100 scale (0 no effect, 100 complete control), approx. 10 days
[13] = Postemergence, 125 g ai/ha, visual rating on 0 to 100 scale (0 no effect, 100 complete control), approx. 10 days
[14] = Preemergence, 125 g ai/ha, 0 to 100 scale where 0 is no effect and 100 is complete control

## O=C1NCC(c2cccc(OC(F)(F)C(F)F)c2)C1C(=O)Nc1ccc(F)c(F)c1F (racemic) [Compound 124]
ducksalad; 500 g ai/ha
  Plant response rating, Ducksalad: 100
galium; [3]
  Plant response rating, Galium: 70
galium; 500 g ai/ha
  Galium plant response rating (0 to 100 scale, 0 is no effect, 100 is complete control): 80
corn; [3]
  Plant response rating, Corn: 0
corn; [4]
  Plant response rating, Corn: 50
pigweed; [5]
  Plant response rating, Pigweed: 70
pigweed; [6]
  Plant response rating, Pigweed: 60
pigweed; Postemergence, 500 g ai/ha
  Pigweed plant response rating (0 to 100 scale, 0 is no effect, 100 is complete control): 70
pigweed; [7]
  Plant response rating, Pigweed: 80
kochia; [5]
  Plant response rating, Kochia: 60
kochia; [6]
  Plant response rating, Kochia: 70
kochia; Postemergence, 500 g ai/ha
  Kochia plant response rating (0 to 100 scale, 0 is no effect, 100 is complete control): 80
kochia; [7]
  Plant response rating, Kochia: 70
blackgrass; [3]
  Plant response rating, Blackgrass: 40
blackgrass; [4]
  Plant response rating, Blackgrass: 70
Barnyardgrass [1]; 500 g ai/ha
  Plant response rating, Barnyardgrass: 40
rice; 500 g ai/ha
  Plant response rating, Rice: 0
wheat; [3]
  Plant response rating, Wheat: 30
wheat; 500 g ai/ha
  Wheat plant response rating (0 to 100 scale, 0 is no effect, 100 is complete control): 50
ryegrass, Italian; [5]
  Plant response rating, Ryegrass, Italian: 0
ryegrass, Italian; [6]
  Plant response rating, Ryegrass, Italian: 30
ryegrass, Italian; Postemergence, 500 g ai/ha
  Ryegrass, Italian plant response rating (0 to 100 scale, 0 is no effect, 100 is complete control): 50
ryegrass, Italian; [7]
  Plant response rating, Ryegrass, Italian: 40
Giant foxtail; [5]
  Plant response rating, Foxtail, Giant: 80
Giant foxtail; [6]
  Plant response rating, Foxtail, Giant: 80
Giant foxtail; Postemergence, 500 g ai/ha
  Foxtail, Giant plant response rating (0 to 100 scale, 0 is no effect, 100 is complete control): 90
Giant foxtail; [7]
  Plant response rating, Foxtail, Giant: 90
ragweed; [5]
  Plant response rating, Ragweed: 40
ragweed; [6]
  Plant response rating, Ragweed: 40
ragweed; Postemergence, 500 g ai/ha
  Ragweed plant response rating (0 to 100 scale, 0 is no effect, 100 is complete control): 70
ragweed; [7]
  Plant response rating, Ragweed: 50
sedge, umbrella; 500 g ai/ha
  Plant response rating, Sedge, Umbrella: 0
Barnyardgrass [2]; [5]
  Plant response rating, Barnyardgrass: 70
Barnyardgrass [2]; [6]
  Plant response rating, Barnyardgrass: 60
Barnyardgrass [2]; [8]
  Plant response rating, Barnyardgrass: 70
Barnyardgrass [2]; preemergence, 500 g ai/ha, 0 to 100 scale (0 no effect, 100 complete control)
  Plant response rating, Barnyardgrass: 80

## COc1ccc(C2CNC(=O)C2C(=O)Nc2ccccc2C(F)(F)F)cc1C(F)(F)F (stereo not drawn) [Compound 240]
ducksalad; 1000 g ai/ha
  Plant response rating, Ducksalad: 85
galium; [9]
  Plant response rating, Galium: 0
galium; [4]
  Plant response rating, Galium: 0
corn; [9]
  Plant response rating, Corn: 0
corn; [4]
  Plant response rating, Corn: 20
pigweed; [5]
  Plant response rating, Pigweed: 0
pigweed; [10]
  Plant response rating, Pigweed: 0
pigweed; [8]
  Plant response rating, Pigweed: 0
pigweed; [11]
  Plant response rating, Pigweed: 0
kochia; [5]
  Plant response rating, Kochia: 0
kochia; [10]
  Plant response rating, Kochia: 0
kochia; [8]
  Plant response rating, Kochia: 0
kochia; [11]
  Plant response rating, Kochia: 0
blackgrass; [9]
  Plant response rating, Blackgrass: 0
blackgrass; [4]
  Plant response rating, Blackgrass: 0
Barnyardgrass [1]; 1000 g ai/ha
  Plant response rating, Barnyardgrass: 70
rice; 1000 g ai/ha
  Plant response rating, Rice: 0
wheat; [9]
  Plant response rating, Wheat: 0
wheat; [4]
  Plant response rating, Wheat: 20
ryegrass, Italian; [5]
  Plant response rating, Ryegrass, Italian: 0
ryegrass, Italian; [10]
  Plant response rating, Ryegrass, Italian: 0
ryegrass, Italian; [8]
  Plant response rating, Ryegrass, Italian: 0
ryegrass, Italian; [11]
  Plant response rating, Ryegrass, Italian: 0
Giant foxtail; [5]
  Plant response rating, Foxtail, Giant: 70
Giant foxtail; [10]
  Plant response rating, Foxtail, Giant: 40
Giant foxtail; [8]
  Plant response rating, Foxtail, Giant: 80
Giant foxtail; [11]
  Plant response rating, Foxtail, Giant: 90
ragweed; [5]
  Plant response rating, Ragweed: 0
ragweed; [10]
  Plant response rating, Ragweed: 0
ragweed; [8]
  Plant response rating, Ragweed: 0
ragweed; [11]
  Plant response rating, Ragweed: 0
sedge, umbrella; 1000 g ai/ha
  Plant response rating, Sedge, Umbrella: 0
Barnyardgrass [2]; [5]
  Plant response rating, Barnyardgrass: 20
Barnyardgrass [2]; [10]
  Plant response rating, Barnyardgrass: 30
Barnyardgrass [2]; [8]
  Plant response rating, Barnyardgrass: 90
Barnyardgrass [2]; [11]
  Plant response rating, Barnyardgrass: 50

## O=C1NCC(c2ccc(Cl)s2)C1C(=O)Nc1cccc(F)c1F (stereo not drawn) [Compound 294]
ducksalad; 500 g ai/ha
  Plant response rating, Ducksalad: 98
galium; [12]
  Plant response rating, Galium: 0
galium; [4]
  Plant response rating, Galium: 30
corn; [12]
  Plant response rating, Corn: 0
corn; [4]
  Plant response rating, Corn: 0
pigweed; [13]
  Plant response rating, Pigweed: 0
pigweed; [8]
  Plant response rating, Pigweed: 0
pigweed; [14]
  Plant response rating, Pigweed: 0
pigweed; [11]
  Plant response rating, Pigweed: 20
kochia; [13]
  Plant response rating, Kochia: 30
kochia; [8]
  Plant response rating, Kochia: 50
kochia; [14]
  Plant response rating, Kochia: 40
kochia; [11]
  Plant response rating, Kochia: 90
blackgrass; [12]
  Plant response rating, Blackgrass: 20
blackgrass; [4]
  Plant response rating, Blackgrass: 30
Barnyardgrass [1]; 500 g ai/ha
  Plant response rating, Barnyardgrass: 20
rice; 500 g ai/ha
  Plant response rating, Rice: 0
wheat; [12]
  Plant response rating, Wheat: 20
wheat; [4]
  Plant response rating, Wheat: 20
ryegrass, Italian; [13]
  Plant response rating, Ryegrass, Italian: 0
ryegrass, Italian; [8]
  Plant response rating, Ryegrass, Italian: 20
ryegrass, Italian; [14]
  Plant response rating, Ryegrass, Italian: 0
ryegrass, Italian; Preemergence, 500 g ai/ha, visual rating on 0 to 100 scale (0 no effect, 100 complete control)
  Ryegrass, Italian plant response rating: 30
Giant foxtail; [13]
  Plant response rating, Foxtail, Giant: 30
Giant foxtail; [8]
  Plant response rating, Foxtail, Giant: 80
Giant foxtail; [14]
  Plant response rating, Foxtail, Giant: 70
Giant foxtail; [11]
  Plant response rating, Foxtail, Giant: 90
ragweed; [13]
  Plant response rating, Ragweed: 0
ragweed; [8]
  Plant response rating, Ragweed: 20
ragweed; [14]
  Plant response rating, Ragweed: 0
ragweed; [11]
  Plant response rating, Ragweed: 0
sedge, umbrella; 500 g ai/ha
  Plant response rating, Sedge, Umbrella: 0
Barnyardgrass [2]; [13]
  Plant response rating, Barnyardgrass: 60
Barnyardgrass [2]; [8]
  Plant response rating, Barnyardgrass: 90
Barnyardgrass [2]; [14]
  Plant response rating, Barnyardgrass: 70
Barnyardgrass [2]; [11]
  Plant response rating, Barnyardgrass: 90
